Measured values reported in patent publication US12194039B2, “Methods of treating heart failure by administering omecamtiv mecarbil” (Cytokinetics, Inc., priority 2020, dated 2025).
Where two headings read alike, the source gives them in different places.

Columns and labels:
[1] = tested on: patients with heart failure; details: result in words; cited from earlier work
[2] = sensitive P-gp substrate digoxin 0.5 mg SD, with OM 50 mg SD
[3] = sensitive CYP3A substrate midazolam 5 mg SD, with OM 25 mg BID
[4] = sensitive BCRP substrate rosuvastatin 10 mg SD, with OM 50 mg SD
[5] = sensitive MATE 1/2K substrate metformin 850 mg SD, with OM 25 mg BID

## C[C@H]1O[C@@H](O[C@H]2[C@@H](O)C[C@H](O[C@H]3[C@@H](O)C[C@H](O[C@H]4CC[C@@]5(C)[C@H](CC[C@@H]6[C@@H]5C[C@@H](O)[C@]5(C)[C@@H](C7=CC(=O)OC7)CC[C@]65O)C4)O[C@@H]3C)O[C@@H]2C)C[C@H](O)[C@@H]1O [Digoxin]
[2]
  % Change of co-administered drug Cmax (↑ = increase): ↑8%
  Mean Ratio of co-administered drug AUC (90% CI): 1.06 (0.99-1.14)
  Mean Ratio of co-administered drug Cmax (90% CI): 1.08 (0.92-1.26)

## Cc1ncc2n1-c1ccc(Cl)cc1C(c1ccccc1F)=NC2 [Midazolam]
[3]
  % Change of co-administered drug AUC (↓ = decrease): ↓18%
  % Change of co-administered drug Cmax (↓ = decrease): ↓10%
  Mean Ratio of co-administered drug AUC (90% CI): 0.82 (0.71-0.94)
  Mean Ratio of co-administered drug Cmax (90% CI): 0.90 (0.75-1.08)

## CC(C)c1nc(N(C)S(C)(=O)=O)nc(-c2ccc(F)cc2)c1/C=C/[C@@H](O)C[C@@H](O)CC(=O)O [Rosuvastatin]
[4]
  % Change of co-administered drug AUC (↑ = increase): ↑27%
  % Change of co-administered drug Cmax (↑ = increase): ↑45%
  Mean Ratio of co-administered drug AUC (90% CI): 1.27 (1.14-1.42)
  Mean Ratio of co-administered drug Cmax (90% CI): 1.54 (1.33-1.79)

## CN(C)C(=N)N=C(N)N [Metformin]
[5]
  Mean Ratio of co-administered drug AUC (90% CI): 0.99 (0.92-1.05)
  Mean Ratio of co-administered drug Cmax (90% CI): 1.10 (1.01-1.21)

## COC(=O)Nc1c(N)nc(-c2nn(Cc3ccccc3F)c3ncc(F)cc23)nc1N [vericiguat]
[1]
  Treatment efficacy at higher NT-proBNP concentrations: declined
